Source: ChEMBL document CHEMBL1146750, “Design, synthesis and evaluation of potential inhibitors of HIV gp120-CD4 interactions” (Bioorg Med Chem Lett, 2004)
pEC50, pIC50: −log10 of the molar value.

Assays:
[1] = Toxicity against HIV cells; format: cell-based; conditions: human immunodeficiency virus 1
[2] = tested on: Human immunodeficiency virus 1; assay: Inhibition of HIV-cell fusion was determined at 10 uM by using cellular FIGS assay; Inactive; format: functional, organism-based
[3] = tested on: Human immunodeficiency virus 1; assay: Inhibition of HIV-specific CD4-gp120 interaction was determined using recombinant protein; format: functional
[4] = Therapeutic index in C8166 cell lines was determined; format: cell-based; conditions: human, C8166 cells; read-out: TC50 (the source's name)
[5] = tested on: C8166; assay: Inhibition of HIV-1 IIIB infections in C8166 cell lines was determined; 4-8 uM; format: functional, cell-based; conditions: Homo sapiens
[6] = tested on: Human immunodeficiency virus 1; assay: Inhibition of HIV-cell fusion was determined by using cellular FIGS assay; format: functional, organism-based
[7] = tested on: C8166; assay: Inhibition of HIV-1 IIIB infections in C8166 cell lines was determined; Range is 4-8 uM; format: functional, cell-based; conditions: Homo sapiens

| SMILES | Activity [1] [µM] | IC50 [2] | further results |
| --- | --- | --- | --- |
| N=C(N)c1cccc(Oc2ccccc2)c1 | 100 | Not Active | – |
| N=C(N)c1cccc(OCc2ccc(OCc3ccccc3)cc2)c1 | 100 | Not Active | – |
| N=C(N)Nc1cccc(OCc2ccc(Cl)cc2)c1.O=C(O)C(F)(F)F | 100 | Not Active | – |
| Cl.N=C(N)Nc1cccc(OCc2ccccc2)c1 | – | – | Inhibition [3]: 5 mM; CC50 [4]: 40 µM; pEC50 [5]: 5.10; pIC50 [6]: 3.88 |
| Cl.N=C(N)Nc1cccc(Oc2ccccc2)c1 | – | – | Inhibition [3]: 5 mM; pEC50 [7]: 5.10; CC50 [4]: 20 µM; pIC50 [6]: 3.78 |
| Cc1ccc(COc2cccc(C(=N)N)c2)cc1 | 100 | Not Active | – |
| N=C(N)Nc1cccc(OCc2ccc(Br)cc2)c1.O=C(O)C(F)(F)F | 100 | Not Active | – |
| N=C(N)c1cccc(OCc2ccc(Cl)cc2)c1 | 100 | Not Active | – |
| N=C(N)c1cccc(OCc2ccccc2)c1 | 100 | Not Active | – |
| N=C(N)c1cccc(OCc2cccc([N+](=O)[O-])c2)c1 | 100 | Not Active | – |
| N=C(N)c1cccc(OCc2ccc(Br)cc2)c1 | 100 | Not Active | – |
